Patent publication US6703347B2, “Isothiazole derivatives and their use as pesticides” (Syngenta Limited, priority 2000, dated 2004)
Several values for one entry are separate records, joined by “and”; a condition that tells them apart may be missing. Identical values can stand only once. Like-named read-outs stand apart in the source and are kept apart here.

Assays:
[1] = test system: peach potato aphids (Myzus persicae); conditions: 500 ppm by weight; infested Chinese cabbage leaves sprayed; mortality assessed after three days
Experimental: (§1) This Example illustrates the pesticidal/insecticidal properties of compounds of formula (I). The activities of individual compounds of formula (I) were determined using a variety of pests. The pests were treated with a liquid composition containing 500 parts per million (ppm) by weight of a compound of formula (I). Each composition was made by dissolving the compound in an acetone and ethanol (50:50 by volume) mixture and diluting the solution with water containing 0.05% by volume of a wetting agent, SYNPERONIC NP8, until the liquid composition contained the required concentration of the compound.
(§2) The test procedure adopted with regard to each pest was essentially the same and comprised supporting a number of the pests on a medium, which was usually a substrate, a host plant or a foodstuff on which the pests feed, and treating either or both the medium and the pests with a composition. Pest mortality was assessed usually between two and five days after treatment.
(§3) In each test against peach potato aphids (Myzus persicae), Chinese cabbage leaves were infested with aphids, the infested leaves were sprayed with a test composition and pest mortality was assessed after three days.

[2] = test system: two-spotted spider mites (Tetranychus urticae); conditions: liquid composition containing 500 ppm by weight of compound
Experimental: (§4) The activities of individual compounds of formula (I) were determined using a variety of pests. The pests were treated with a liquid composition containing 500 parts per million (ppm) by weight of a compound of formula (I). Each composition was made by dissolving the compound in an acetone and ethanol (50:50 by volume) mixture and diluting the solution with water containing 0.05% by volume of a wetting agent, SYNPERONIC NP8, until the liquid composition contained the required concentration of the compound.
as §2
(§5) Similar tests were conducted against, independently, two-spotted spider mites (Tetranychus urticae), fruit flies (Drosophila melanogaster), tobacco budworms (Heliothis virescens), diamond back moth (Plutella xylostella) and corn root worm (Diabrotica balteata).

[3] = test system: diamond back moth (Plutella xylostella); test: pesticidal test against diamond back moth; conditions: liquid composition containing 500 ppm by weight of compound
Experimental: as §4, §2, §5

[4] = test system: tobacco budworms (Heliothis virescens); test: pesticidal test against tobacco budworms; conditions: liquid composition containing 500 ppm by weight of compound
Experimental: as §4, §2, §5

[5] = test system: corn root worm (Diabrotica balteata); test: pesticidal test against corn root worm; conditions: liquid composition containing 500 ppm by weight of compound
Experimental: as §4, §2, §5

[6] = test system: Phytophthora infestans lycopersici (PHYTIN); format: in vivo; conditions: 100 ppm foliar (Prot) application on tomatoes; inoculated 6 hours or one day after application
[7] = test system: fruit flies (Drosophila melanogaster); test: pesticidal test against fruit flies; conditions: liquid composition containing 500 ppm by weight of compound
Experimental: as §4, §2, §5

[8] = test system: Plasmopara viticola (PLASVI); test: foliar fungicide test on vines (Example 19); format: in vivo; conditions: 100 ppm foliar (Prot) application on vines; inoculated 6 hours or one day after application
[9] = test system: peach potato aphids (Myzus persicae); test: whole plant or invertebrate; conditions: 72 h, read-out: mortality (score) Mp
Experimental: as §1, §2, §3

[10] = test system: Uncinula necator (UNCINE); test: foliar fungicide test on vines (Example 18); format: in vivo; conditions: 100 ppm foliar spray on vines; for UNCINE Erad, PRCO (Percentage Reduction from Control): inoculated one day before chemical application (Erad)
[11] = test system: Puccinia recondita (PUCCRT); test: foliar fungicide test on wheat (Example 18); format: in vivo; conditions: 100 ppm foliar spray on wheat; inoculated one day after chemical application (Prot)
[12] = test system: Pyricularia oryzae (PYRIOR); format: in vivo; conditions: 100 ppm foliar spray on rice; inoculated one day after chemical application (Prot)
[13] = test system: Blumeria graminis f.sp. tritici (ERYSGT); test: foliar fungicide test on wheat (Example 19); format: in vivo; conditions: 100 ppm foliar (Prot) application on wheat; inoculated 6 hours or one day after application
[14] = test system: Phytophthora infestans lycopersici (PHYTIN); format: in vivo; conditions: 100 ppm foliar spray on tomatoes; inoculated one day after chemical application (Prot)
[15] = test system: Venturia inaequalis (VENTIN); test: foliar fungicide test on apples (Example 18); format: in vivo; conditions: 100 ppm foliar spray on apples; inoculated one day after chemical application (Prot)

Row | SMILES | mortality (score) Mp [1] | mortality (score) Tu [2] | mortality (score) Px [3] | mortality (score) Hv [4] | mortality (score) Db [5] | mortality (score) Dm [7] | other results
1 | Cc1nsc(NC(=O)C(SC(C)C)c2ccc3oc(CC(C)(C)C)nc3c2)c1Cl (stereo not shown) [Table 22 Compound 7] | 0 (represents less than 40% mortality) | 9 (9 indicates 80-100% mortality) | – | – | – | – | –
2 | Cc1nsc(NC(=O)C(=CNCc2ccc(Cl)cc2)c2ccc3oc(CC(C)(C)C)nc3c2)c1Cl [Table 19 Compound 7] | 5 (5 indicates 40-79% mortality) and 9 (9 indicates 80-100% mortality) | 9 (9 indicates 80-100% mortality) | – | – | – | – | –
3 | Cc1nsc(NC(=O)C(=O)c2ccc3oc(CC(C)(C)C)nc3c2)c1Cl [Table 10 Compound 7] | 9 (9 indicates 80-100% mortality) | 0 (represents less than 40% mortality) | 9 (9 indicates 80-100% mortality) | – | – | – | –
4 | Cc1nsc(NC(=O)C(CC#N)c2ccc3oc(CC(C)(C)C)nc3c2)c1Cl (stereo not shown) [Table 20 Compound 7] | 5 (5 indicates 40-79% mortality) | 9 (9 indicates 80-100% mortality) | 9 (9 indicates 80-100% mortality) | 0 (represents less than 40% mortality) | 0 (represents less than 40% mortality) | 0 (represents less than 40% mortality) | PHYTIN Prot, PRCO (Percentage Reduction from Control) [6]: 72; PLASVI Prot, PRCO (Percentage Reduction from Control) [8]: 100
5 | CCc1nsc(NC(=O)C(C)c2ccc3sc(CC(C)C)nc3c2)c1Cl (stereo not shown) [Table 39 Compound 86, N-(4-chloro-3-ethylisothiazol-5-yl)-2-[2-(2-methylpropyl)benzothiazol-5-yl]propionamide] | – | – | 9 (9 indicates 80-100% mortality) | 9 (9 indicates 80-100% mortality) | 9 (9 indicates 80-100% mortality) | 0 (represents less than 40% mortality) | mortality at 500 ppm [9]: 40 to 79%
6 | Cc1nsc(NC(=O)C(C)c2ccc3oc(CC(C)(C)C)nc3c2)c1Cl (stereo not shown) [Table 1 Compound 7, N-(4-chloro-3-methylisothiazol-5-yl)-2-[2-(2,2-dimethylpropyl)benzoxazol-5-yl]propionamide] | – | – | – | – | – | – | UNCINE Erad, PRCO (Percentage Reduction from Control) [10]: 100; PUCCRT Prot, PRCO (Percentage Reduction from Control) [11]: 85; mortality at 500 ppm [9]: 40 to 79%; PYRIOR Prot, PRCO (Percentage Reduction from Control) [12]: 24
7 | CCOC(=O)CNN=C(C(=O)Nc1snc(C)c1Cl)c1ccc2oc(CC(C)(C)C)nc2c1 [Table 30 Compound 7] | 9 (9 indicates 80-100% mortality) | – | – | – | – | – | ERYSGT Prot, PRCO (Percentage Reduction from Control) [13]: 100
8 | Cc1nsc(NC(=O)C(O)c2ccc3oc(CC(C)(C)C)nc3c2)c1Cl (stereo not shown) [Table 7 Compound 7] | 0 (represents less than 40% mortality) | 9 (9 indicates 80-100% mortality) | 9 (9 indicates 80-100% mortality) | – | – | 9 (9 indicates 80-100% mortality) | –
9 | Cc1nsc(NC(=O)C(C)c2ccc3oc(CC(F)(F)F)nc3c2)c1Cl (stereo not shown) [Table 1 Compound 8, N-(4-chloro-3-methylisothiazol-5-yl)-2-[2-(2,2,2-trifluoroethyl)benzoxazol-5-yl]propionamide] | – | – | 9 (9 indicates 80-100% mortality) | 9 (9 indicates 80-100% mortality) | 9 (9 indicates 80-100% mortality) | 0 (represents less than 40% mortality) | mortality at 500 ppm [9]: 40 to 79%
10 | Cc1nsc(NC(=O)C(c2ccc3oc(CC(C)(C)C)nc3c2)C(C)C)c1Cl (stereo not shown) [Table 3 Compound 7] | – | – | – | – | – | – | PHYTIN Prot, PRCO (Percentage Reduction from Control) [14]: 20; UNCINE Erad, PRCO (Percentage Reduction from Control) [10]: 91; PUCCRT Prot, PRCO (Percentage Reduction from Control) [11]: 19
11 | CCNC=C(C(=O)Nc1snc(C)c1Cl)c1ccc2oc(CC(C)(C)C)nc2c1 [Table 15 Compound 7, N-(4-chloro-3-methylisothiazol-5-yl)-α-[(ethylamino)methylene]-[2-(2,2-dimeth-ylpropyl)benzoxazol-5-yl]acetamide] | – | 9 (9 indicates 80-100% mortality) | – | – | – | – | VENTIN Prot, PRCO (Percentage Reduction from Control) [15]: 53; UNCINE Erad, PRCO (Percentage Reduction from Control) [10]: 100; PUCCRT Prot, PRCO (Percentage Reduction from Control) [11]: 100; mortality at 500 ppm [9]: 80 to 100%; PYRIOR Prot, PRCO (Percentage Reduction from Control) [12]: 57
12 | CC(=O)OCC(C(=O)Nc1snc(C)c1Cl)c1ccc2oc(CC(C)(C)C)nc2c1 (stereo not shown) [Table 28 Compound 7] | 5 (5 indicates 40-79% mortality) | – | – | 9 (9 indicates 80-100% mortality) | 0 (represents less than 40% mortality) | 0 (represents less than 40% mortality) | PLASVI Prot, PRCO (Percentage Reduction from Control) [8]: 97; ERYSGT Prot, PRCO (Percentage Reduction from Control) [13]: 98
13 | Cc1nsc(NC(=O)C(C)(F)c2ccc3oc(CC(C)(C)C)nc3c2)c1Cl (stereo not shown) [Table 6 Compound 7, N-(4-chloro-3-methylisothiazol-5-yl)-2-[2-(2,2-dimethylpropyl)benzoxazol-5-yl]-2-fluoropropionamide] | – | – | – | 9 (9 indicates 80-100% mortality) | 9 (9 indicates 80-100% mortality) | 5 (5 indicates 40-79% mortality) | mortality at 500 ppm [9]: 80 to 100%
14 | COC=C(C(=O)Nc1snc(C)c1Cl)c1ccc2oc(CC(C)(C)C)nc2c1 [Table 13 Compound 7] | 9 (9 indicates 80-100% mortality) | – | 0 (represents less than 40% mortality) | – | – | 0 (represents less than 40% mortality) | PHYTIN Prot, PRCO (Percentage Reduction from Control) [6]: 100; PLASVI Prot, PRCO (Percentage Reduction from Control) [8]: 100
15 | C=C(C(=O)Nc1snc(C)c1Cl)c1ccc2oc(CC(C)(C)C)nc2c1 [Table 11 Compound 7] | – | – | – | – | – | – | PHYTIN Prot, PRCO (Percentage Reduction from Control) [14]: 50; UNCINE Prot, PRCO (Percentage Reduction from Control) ([10]; inoculated one day after chemical application (Prot)): 73; PUCCRT Prot, PRCO (Percentage Reduction from Control) [11]: 27; PYRIOR Prot, PRCO (Percentage Reduction from Control) [12]: 66
16 | CCOCN(C(=O)C(C)c1ccc2oc(C(F)(F)C(F)(F)C(F)(F)F)nc2c1)c1snc(C)c1Cl (stereo not shown) [Table 1 Compound 80] | 5 (5 indicates 40-79% mortality) | – | 9 (9 indicates 80-100% mortality) | 9 (9 indicates 80-100% mortality) | 9 (9 indicates 80-100% mortality) | 0 (represents less than 40% mortality) | –
17 | CCOCN(C(=O)/C=C/c1ccc2oc(CC(C)(C)C)nc2c1)c1snc(C)c1Cl [Table 81 Compound 77] | 0 (represents less than 40% mortality) | 0 (represents less than 40% mortality) | 0 (represents less than 40% mortality) | 0 (represents less than 40% mortality) | 9 (9 indicates 80-100% mortality) | 0 (represents less than 40% mortality) | –
18 | CCOCN(C(=O)C(C)c1ccc2oc(CC(C)(C)C)nc2c1)c1snc(CC)c1Cl (stereo not shown) [Table 1 Compound 157] | 9 (9 indicates 80-100% mortality) | – | 9 (9 indicates 80-100% mortality) | 9 (9 indicates 80-100% mortality) | 9 (9 indicates 80-100% mortality) | 0 (represents less than 40% mortality) | –
19 | CCc1nsc(NC(=O)C(F)c2ccc3sc(CC(C)(C)C)nc3c2)c1Cl (stereo not shown) [Table 42 Compound 87] | 9 (9 indicates 80-100% mortality) | – | 9 (9 indicates 80-100% mortality) | 9 (9 indicates 80-100% mortality) | 9 (9 indicates 80-100% mortality) | 9 (9 indicates 80-100% mortality) | –
20 | Cc1nsc(NC(=O)C(=CN(C)C)c2ccc3oc(CC(C)(C)C)nc3c2)c1Cl [Table 14 Compound 7, N-(4-chloro-3-methylisothiazol-5-yl)-α-[(dimethylamino)methylene]-[2-(2,2-dimethylpropyl)benzoxazol-5-yl]acetamide] | – | 9 (9 indicates 80-100% mortality) | – | – | – | – | VENTIN Prot, PRCO (Percentage Reduction from Control) [15]: 85; PHYTIN Prot, PRCO (Percentage Reduction from Control) [14]: 0; ERYSGT Prot, PRCO (Percentage Reduction from Control) [13]: 83; UNCINE Erad, PRCO (Percentage Reduction from Control) [10]: 100; PUCCRT Prot, PRCO (Percentage Reduction from Control) [11]: 98; mortality at 500 ppm [9]: 80 to 100%; PYRIOR Prot, PRCO (Percentage Reduction from Control) [12]: 92
21 | CCOCN(C(=O)C(C)c1ccc2oc(CC(C)(C)C)nc2c1)c1snc(C)c1Cl (stereo not shown) [Table 1 Compound 77] | 9 (9 indicates 80-100% mortality) | – | 9 (9 indicates 80-100% mortality) | 9 (9 indicates 80-100% mortality) | 9 (9 indicates 80-100% mortality) | 0 (represents less than 40% mortality) | –
